Measurements taken from US20210395250A1, “NOVEL CRYSTAL OF (3S)-3-[2-(6-AMINO-2-FLUOROPYRIDIN-3-YL)-4-FLUORO-1H-IMIDAZOL-5-YL]-7-[5-CHLORO-2-(1H-TETRAZOL-1-YL)PHENYL]-2,3-DIHYDROINDOLIZIN-5(1H)-ONE” (priority 2018, published 2021).
≈ marks a conversion by molar mass, not a printed value. Where two headings read alike, the source gives them in different places.

Experiments:
[1] = Evaluation of oral absorption after oral administration of suspensions to monkeys; settings: for oral absorption rate (%): cynomolgus monkeys/male, fasted, 1 mg/kg oral suspension in 0.5% aqueous methyl cellulose, oral AUC / intravenous AUC (1 mg/kg) x 100
Procedure: The measurement of oral absorption was carried out under the following conditions.
Each of the suspensions was prepared with a 0.5% aqueous methyl cellulose solution at a concentration of 0.33 mg/mL (in terms of free base content). Each of the suspensions was administered to monkeys (cynomolgus monkeys/male), which had been fasted since the day before, in the stomach thereof forcibly with a sonde. The amount of administration was adjusted depending on the body weight of each of the monkeys so that the dosage amount became 1 mg/kg.
After the administration of the suspensions (liquid pharmaceuticals), at the timing of 0.25, 0.5, 1, 2, 4, 7 and 24 hours after the administration, blood (0.5 mL) was collected from the cephalic vein with a heparin-added syringe. The collected blood was centrifuged at 10000 G for 5 minutes to separate plasma from the blood. In the evaluation of the oral absorption of the test compounds, data obtained when the test compounds were administered intravenously at the same dose amounts (1 mg/kg) were employed. The oral absorption rate (%) was calculated by dividing an AUC (area under the blood concentration-time curve) value obtained in the oral administration by an AUC value obtained in the intravenous administration and then multiplying the resultant value by 100.
The whole volume of the solution was added to Oasis HLB μElution Plate through which acetonitrile (200 μL) and purified water (200 μL) had been passed, and was then sucked under reduced pressure. Purified water (200 μL) was added to the solution, and the resultant solution was washed by sucking under reduced pressure. Acetonitrile (200 μL) was added to the solution, the resultant solution was sucked under reduced pressure, and an eluate was collected in a 96-well plate. The eluate (10 μL) was added to a 0.1% aqueous formic acid solution/acetonitrile (2/1) solution (290 μL), and the resultant solution was stirred and was then analyzed by LC/MS/MS.
The analysis by LC/MS/MS was carried out under the following conditions.
Measurement device: API-5000 (manufactured by Applied Biosystems/MDS SCIEX) Analysis column: Cadenza CD-C18 (2.0 mm I.D.×100 mm, 3 μm) Flow rate: 0.4 mL/min. Components of mobile phase: a 0.1% aqueous formic acid solution/acetonitrile (0 minute: 65/35, 4.0 minutes: 65/35, 4.1 minutes: 10/90, 5.0 minutes: 10/90, 5.1 minutes: 65/35, 7.0 minutes: 65/35) Scan type: MRM (Multiple Reaction Monitoring)

[2] = Evaluation of solubility in JP 1st fluid and artificial intestinal juice (FaSSIF), HPLC; assay type: physicochemical; settings: after 24 hours; for solubility at 24 h: 37 °C, thermodynamic from solid
Procedure: The measurement of solubility was carried out under the following conditions.
About 3 mg of each of the compounds of the present invention was weighed in a test tube, then a stirrer and 5 mL of each of an artificial intestinal juice (FaSSIF; Reference Document 1: Pharmaceutical Research, vol. 20, pp. 1674-1680, 2003; Reference Document 2: Biological & Pharmaceutical Bulletin, vol. 34, pp. 401-407, 2011) and JP 1st fluid which had been warmed to 37° C. were added to the test tube, and then the test tube was sealed hermetically. The test tube was installed in a solubility test device (Gilson, Quad-Z 215), and the solution was stirred at 37° C. and 700 rpm. After 0.25, 0.5, 1, 3, 6 and 24 hours, an aliquot of the solution in the test tube was collected. The collected solution was filtrated through a filter, and a filtrate was diluted two-folds with acetonitrile. A diluted solution of the artificial intestinal juice was centrifuged at 3000 rpm for 5 minutes, and a supernatant was used as a sample solution. A diluted solution of the JP 1st fluid was used as is as a sample solution. Solubility was calculated by a high-performance liquid chromatography method.
Column: Waters Xbridge ShieldRP18 (4.6 mm (inner diameter)×50 mm, 3.5 μm) Column temperature: 40° C. Component of mobile phase: 20 mM potassium dihydrogen phosphate (pH 3.0)/acetonitrile (0 minute: 70/30, 5 minutes: 25/75)
Flow rate: 1.0 mL/min Sample rack temperature: 15° C. Sample injection amount: 10 μL Measurement time: 5 minutes Retention time: 2.6 minutes

[3] = Evaluation of hygroscopicity: isothermal absorption curve measurement (DVS); assay type: physicochemical
Procedure: Physical Chemical Example 1: Evaluation of Hygroscopicity
An isothermal absorption curve measurement (DVS) was carried out under the following conditions.
Device: DVS Intrinsic, manufactured by SMS
Measurement temperature: 25° C.
Measurement range: relative humidity of 0 to 95%
Interval of measurement: relative humidity of 5%

[4] = artificial intestinal juice (FaSSIF), 37° C., 700 rpm
[5] = artificial intestinal juice (FaSSIF), 37° C.

Row | Molecule | hygroscopicity (in words) [3] | oral absorption rate (%) [1] [%] | Solubility, JP 1st fluid ([2]; JP 1st fluid, 37° C., 700 rpm) [μg/m] | Solubility, Artificial intestinal juice [2, 4] [μg/m] | solubility in the artificial intestinal juice [2, 5] [µg/mL] | further results
1 | Nc1ccc(-c2nc(F)c([C@@H]3CCc4cc(-c5cc(Cl)ccc5-n5cnnn5)cc(=O)n43)[nH]2)c(F)n1 [Example 1(11), (3S)-3-[2-(6-amino-2-fluoro-3-pyridinyl)-4-fluoro-1H-imidazol-5-yl]-7-[5-chloro-2-(1H-tetrazol-1-yl)phenyl]-2,3-dihydro-5(1H)-indolizinone dihydrate] | high hygroscopicity |  |  |  |  | oral absorption rate (%) ([1]; dihydrate): 26%; oral absorption (in words) ([1]; monkeys, oral): poor oral absorption; solubility at 24 h ([2]; JP 1st fluid, simulated gastric fluid, JP 1st fluid, 700 rpm, read-out: Solubility, JP 1st fluid): 41 µg/mL; solubility at 24 h ([2]; JP 1st fluid, simulated gastric fluid, JP 1st fluid, read-out: solubility in the JP 1st fluid): 41 µg/mL; solubility at 24 h ([2]; artificial intestinal juice (FaSSIF), fassif, artificial intestinal juice (FaSSIF), 700 rpm, read-out: Solubility, Artificial intestinal juice): 47 µg/mL; solubility at 24 h ([2]; artificial intestinal juice (FaSSIF), fassif, artificial intestinal juice (FaSSIF), read-out: solubility in the artificial intestinal juice): 47 µg/mL
2 | Nc1ccc(-c2nc(F)c([C@@H]3CCc4cc(-c5cc(Cl)ccc5-n5cnnn5)cc(=O)n43)[nH]2)c(F)n1 [Example 5, (3S)-3-[2-(6-Amino-2-fluoropyridin-3-yl)-4-fluoro-1H-imidazol-5-yl]-7-[5-chloro-2-(1H-tetrazol-1-yl)phenyl]-2,3-dihydroindolizin-5(1H)-one-3-hydroxybenzoic acid (1/1)] |  | ~100 | 75 | 60 | 60 (≈ 118 µM) | solubility in the JP 1st fluid ([2]; JP 1st fluid, 37° C.): 75 µg/mL (≈ 148 µM); weight change rate ([3]; DVS, 25° C., relative humidity of 0 to 95%): less than 1%
3 | (3S)-3-[2-(6-Amino-2-fluoropyridin-3-yl)-4-fluoro-1H-imidazol-5-yl]-7-[5-chloro-2-(1H-tetrazol-1-yl)phenyl]-2,3-dihydroindolizin-5(1H)-one-3-hydroxybenzoic acid (1/1) [Example 5] | low hygroscopicity |  |  |  |  | 
4 | (3S)-3-[2-(6-Amino-2-fluoropyridin-3-yl)-4-fluoro-1H-imidazol-5-yl]-7-[5-chloro-2-(1H-tetrazol-1-yl)phenyl]-2,3-dihydroindolizin-5(1H)-one-nicotinamide (2/1) [Example 4] |  | 44 | 77 | 60 | 60 | 
